Experimental data from patent US10717742B2, “Spiro[3H-indole-3,2′-pyrrolidin]-2(1H)-one compounds and derivatives as MDM2-P53 inhibitors” (Boehringer Ingelheim International GmbH, priority 2015, dated 2020).

Biological target: p53-MDM2 interaction (GST-MDM2 protein aa 23-117 / biotinylated p53 wt peptide) (Homo sapiens (Human), UniProt Q00987)
Experiment: Mdm2-p53 Inhibition AlphaScreen
Type: binding
Details: GST-MDM2 (aa 23-117) / biotinylated p53 wt peptide
Procedure: Mdm2-p53 Inhibition AlphaScreen
15 μL of compound in 20% DMSO (serial pre-dilutions of compound are done in 100% DMSO) is pipetted to the wells of a white OptiPlate-96 (Perkin Elmer). A mix consisting of 20 nM GST-MDM2 protein (aa 23-117) and 20 nM biotinylated p53 wt peptide (encompassing aa 16-27 of wt human p53, amino acid sequence […]-Ttds-Lys-Biotin, molecular weight 2132.56 g/mol) is prepared in assay buffer (50 mM Tris/HCl pH 7.2; 120 mM NaCl; 0.1% bovine serum albumin (BSA); 5 mM dithiothreitol (DTT); 1 mM ethylenediaminetetraacetic acid (EDTA); 0.01% Tween 20). 30 μL of the mix is added to the compound dilutions and incubated for 15 min at rt while gently shaking the plate at 300 rounds per minute (rpm). Subsequently, 15 μL of premixed AlphaLISA Glutathione Acceptor Beads and AlphaScreen Streptavidin Donor Beads from PerkinElmer (in assay buffer at a concentration of 10 μg/mL each) are added and the samples are incubated for 30 min at rt in the dark (shaking 300 rpm). Afterwards, the signal is measured in a PerkinElmer Envision HIS Multilabel Reader using the AlphaScreen protocol from Perkin Elmer.
Each plate contains negative controls where biotinylated p53-peptide and GST-MDM2 are left out and replaced by assay buffer. Negative control values are entered as low basis value when using the software GraphPad Prism for calculations. Furthermore, a positive control (5% DMSO instead of test compound; with protein/peptide mix) is pipetted. Determination of IC50 values are carried out using GraphPad Prism 3.03 software (or updates thereof).

p53-MDM2 interaction (GST-MDM2 protein aa 23-117 / biotinylated p53 wt peptide), sequence (Q00987 23-117): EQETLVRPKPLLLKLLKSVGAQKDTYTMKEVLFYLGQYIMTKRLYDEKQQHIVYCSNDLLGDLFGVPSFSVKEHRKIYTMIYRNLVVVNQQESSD

| SMILES | IC50 [nM] |
| --- | --- |
| COC(=O)c1ccc2c3n(nc2c1C)[C@@H]1[C@H](C3)N(CC2CC2)[C@@]2(C(=O)Nc3cc(Cl)ccc32)[C@H]1c1cccc(Cl)c1F [Ia-20] | 23 |
| O=C(O)c1ccc2c3n(nc2c1)[C@@H]1[C@H](C3)N(CC2CCC2)[C@@]2(C(=O)Nc3cc(Cl)ccc32)[C@H]1c1cccc(Cl)c1F [Ia-26] | 4 |
| CCCN1[C@H]2Cc3c4ccc(C(=O)O)cc4nn3[C@H]2[C@H](c2cccc(Cl)c2F)[C@]12C(=O)Nc1cc(Cl)ccc12 [Ia-29] | 2 |
| COCCN1[C@H]2Cc3c4ccc(C(=O)O)cc4nn3[C@H]2[C@H](c2cccc(Cl)c2F)[C@]12C(=O)Nc1cc(Cl)ccc12 [Ia-31] | 3 |
| CCOc1cccc(CN2[C@H]3Cc4c5ccc(C(=O)O)cc5nn4[C@H]3[C@H](c3cccc(Cl)c3F)[C@]23C(=O)Nc2cc(Cl)ccc23)c1 [Ia-32] | 2 |
| Cc1c(C(=O)O)ccc2c3n(nc12)[C@@H]1[C@H](C3)N(CC2CC2)[C@@]2(C(=O)Nc3cc(Cl)ccc32)[C@H]1c1cccc(Cl)c1F [Ia-34] | 2 |
| COc1cc2c3n(nc2cc1C(=O)O)[C@@H]1[C@H](C3)N(CC2CC2)[C@@]2(C(=O)Nc3cc(Cl)ccc32)[C@H]1c1cccc(Cl)c1F [Ia-35] | 2 |
| COc1c(C(=O)O)ccc2c3n(nc12)[C@@H]1[C@H](C3)N(CC2CC2)[C@@]2(C(=O)Nc3cc(Cl)ccc32)[C@H]1c1cccc(Cl)c1F [Ia-36] | 5 |
| Cc1cc2c3n(nc2cc1C(=O)O)[C@@H]1[C@H](C3)N(CC(C)C)[C@@]2(C(=O)Nc3cc(Cl)ccc32)[C@H]1c1cccc(Cl)c1F [Ia-39] | 4 |
| CCOc1cccc(CN2[C@H]3Cc4c5cc(C)c(C(=O)O)cc5nn4[C@H]3[C@H](c3cccc(Cl)c3F)[C@]23C(=O)Nc2cc(Cl)ccc23)c1 [Ia-40] | 2 |
| O=C(O)c1ccc2c3n(nc2c1)[C@@H]1[C@H](C3)N(CC2CC2)[C@@]2(C(=O)Nc3cc(Cl)ccc32)[C@H]1c1ccnc(Cl)c1F [Ia-41] | 3 |
| O=C(O)c1ccc2c3n(nc2c1)[C@@H]1[C@H](C3)N(CC2CC2)[C@@]2(C(=O)Nc3nc(Cl)ccc32)[C@H]1c1cccc(Cl)c1F [Ia-43] | 2 |
| COCCOCCNC(=O)c1ccc2c3n(nc2c1)[C@@H]1[C@H](C3)N(CC2CCC2)[C@@]2(C(=O)Nc3cc(Cl)ccc32)[C@H]1c1cccc(Cl)c1F [Ia-49] | 6 |
| CCN1[C@H]2Cc3c4ccc(C(=O)NCCO)cc4nn3[C@H]2[C@H](c2cccc(Cl)c2F)[C@]12C(=O)Nc1cc(Cl)ccc12 [Ia-50] | 4 |
| CCN1[C@H]2Cc3c4ccc(C(=O)NCCN(C)C)cc4nn3[C@H]2[C@H](c2cccc(Cl)c2F)[C@]12C(=O)Nc1cc(Cl)ccc12 [Ia-51] | 7 |
| CCN1[C@H]2Cc3c4ccc(C(=O)N5CCCCC5)cc4nn3[C@H]2[C@H](c2cccc(Cl)c2F)[C@]12C(=O)Nc1cc(Cl)ccc12 [Ia-52] | 69 |
| CCOc1cccc(CN2[C@H]3Cc4c5cc(C)c(C(=O)N6CCOCC6)cc5nn4[C@H]3[C@H](c3cccc(Cl)c3F)[C@]23C(=O)Nc2cc(Cl)ccc23)c1 [Ia-54] | 13 |
| CCOc1cccc(CN2[C@H]3Cc4c5cc(C)c(C(=O)N(C)C)cc5nn4[C@H]3[C@H](c3cccc(Cl)c3F)[C@]23C(=O)Nc2cc(Cl)ccc23)c1 [Ia-57] | 13 |
| CCOc1cccc(CN2[C@H]3Cn4c(nc5cc(C(=O)OC)ccc54)[C@H]3[C@H](c3cccc(Cl)c3F)[C@]23C(=O)Nc2cc(Cl)ccc23)c1 [Ib-49] | 5 |
| CS(=O)(=O)c1ccc2c(c1)nc1n2CC[C@H]2[C@@H]1[C@H](c1cccc(Cl)c1F)[C@]1(C(=O)Nc3cc(Cl)ccc31)N2CC1CC1 [Ib-57] | 12 |
| CS(=O)(=O)c1ccc2c(c1)nc1n2CC[C@H]2[C@@H]1[C@H](c1cccc(Cl)c1F)[C@]1(C(=O)Nc3cc(Cl)ccc31)N2CC1CC1 [Ib-58] | 7 |
| CC(=O)Nc1ccc2c(c1)nc1n2CC[C@H]2[C@@H]1[C@H](c1cccc(Cl)c1F)[C@]1(C(=O)Nc3cc(Cl)ccc31)N2CC1CC1 [Ib-59] | 15 |
| COC(=O)c1ccc2c(c1)nc1n2CC[C@H]2[C@@H]1[C@H](c1cccc(Cl)c1F)[C@]1(C(=O)Nc3cc(Cl)ccc31)N2CC=C(C)C [Ib-66] | 166 |
| O=C(O)c1ccc2c(c1)nc1n2CC[C@H]2[C@@H]1[C@H](c1cccc(Cl)c1F)[C@]1(C(=O)Nc3cc(Cl)ccc31)N2CC1CC1 [Ib-107] | 2 |
| CC(C)CN1[C@H]2CCn3c(nc4cc(C(=O)O)ccc43)[C@H]2[C@H](c2cccc(Cl)c2F)[C@]12C(=O)Nc1cc(Cl)ccc12 [Ib-110] | 3 |
| CCN1[C@H]2CCn3c(nc4cc(C(=O)O)ccc43)[C@H]2[C@H](c2cccc(Cl)c2F)[C@]12C(=O)Nc1cc(Cl)ccc12 [Ib-111] | 7 |
| CCCN1[C@H]2CCn3c(nc4cc(C(=O)O)ccc43)[C@H]2[C@H](c2cccc(Cl)c2F)[C@]12C(=O)Nc1cc(Cl)ccc12 [Ib-113] | 4 |
| CC(C)CCN1[C@H]2CCn3c(nc4cc(C(=O)O)ccc43)[C@H]2[C@H](c2cccc(Cl)c2F)[C@]12C(=O)Nc1cc(Cl)ccc12 [Ib-119] | 12 |
| COCCN1[C@H]2CCn3c(nc4cc(C(=O)O)ccc43)[C@H]2[C@H](c2cccc(Cl)c2F)[C@]12C(=O)Nc1cc(Cl)ccc12 [Ib-127] | 11 |

Continued by falling IC50, values first:

| IC50 [nM] | SMILES |
| --- | --- |
| 79 | O=C(O)c1ccc2c(c1)nc1n2CC[C@@H]2[C@H]1[C@@H](c1cccc(Cl)c1F)[C@@]1(C(=O)Nc3cc(Cl)ccc31)N2CC1CC1 [Ib-108] |
| 58 | CS(=O)(=O)CCCN1[C@H]2CCn3c(nc4cc(C(=O)O)ccc43)[C@H]2[C@H](c2cccc(Cl)c2F)[C@]12C(=O)Nc1cc(Cl)ccc12 [Ib-133] |
| 22 | CC(C)(C)OCCN1[C@H]2CCn3c(nc4cc(C(=O)O)ccc43)[C@H]2[C@H](c2cccc(Cl)c2F)[C@]12C(=O)Nc1cc(Cl)ccc12 [Ib-131] |
| 14 | O=C(O)c1ccc2c(c1)nc1n2CC[C@H]2[C@@H]1[C@H](c1cccc(Cl)c1F)[C@]1(C(=O)Nc3cc(Cl)ccc31)N2CC1CC(F)(F)C1 [Ib-125] |
| 11 | CC(C)=CCN1[C@H]2CCn3c(nc4cc(C(=O)O)ccc43)[C@H]2[C@H](c2cccc(Cl)c2F)[C@]12C(=O)Nc1cc(Cl)ccc12 [Ib-121] |
| 10 | COCC(COC)NC(=O)c1ccc2c3n(nc2c1)[C@@H]1[C@H](C3)N(CC2CCC2)[C@@]2(C(=O)Nc3cc(Cl)ccc32)[C@H]1c1cccc(Cl)c1F [Ia-48] |
| 10 | CC(C)OCCN1[C@H]2CCn3c(nc4cc(C(=O)O)ccc43)[C@H]2[C@H](c2cccc(Cl)c2F)[C@]12C(=O)Nc1cc(Cl)ccc12 [Ib-129] |
| 9 | O=C(NC1CC1)c1ccc2c3n(nc2c1)[C@@H]1[C@H](C3)N(CC2CCC2)[C@@]2(C(=O)Nc3cc(Cl)ccc32)[C@H]1c1cccc(Cl)c1F [Ia-47] |
| 8 | CC(C)(O)CNC(=O)c1ccc2c3n(nc2c1)[C@@H]1[C@H](C3)N(CC2CCC2)[C@@]2(C(=O)Nc3cc(Cl)ccc32)[C@H]1c1cccc(Cl)c1F [Ia-46] |
| 8 | CC(C)CN1[C@H]2CCn3c(nc4cc(C(=O)O)ccc43)[C@H]2[C@H](c2cccc(Cl)c2F)[C@]12C(=O)Nc1cc(Cl)ccc12 [Ib-109] |
| 8 | CCCCCN1[C@H]2CCn3c(nc4cc(C(=O)O)ccc43)[C@H]2[C@H](c2cccc(Cl)c2F)[C@]12C(=O)Nc1cc(Cl)ccc12 [Ib-117] |
| 7 | CCN1[C@H]2Cc3c4ccc(C(=O)NC5(C)COC5)cc4nn3[C@H]2[C@H](c2cccc(Cl)c2F)[C@]12C(=O)Nc1cc(Cl)ccc12 [Ia-53] |
| 7 | CCCCN1[C@H]2CCn3c(nc4cc(C(=O)O)ccc43)[C@H]2[C@H](c2cccc(Cl)c2F)[C@]12C(=O)Nc1cc(Cl)ccc12 [Ib-115] |
| 6 | CCOc1cccc(CN2[C@H]3Cc4c5cc(C)c(C(=O)NCCOC)cc5nn4[C@H]3[C@H](c3cccc(Cl)c3F)[C@]23C(=O)Nc2cc(Cl)ccc23)c1 [Ia-55] |
| 5 | CCOc1cccc(CN2[C@H]3Cc4c5cc(C)c(C(=O)NC)cc5nn4[C@H]3[C@H](c3cccc(Cl)c3F)[C@]23C(=O)Nc2cc(Cl)ccc23)c1 [Ia-56] |
| 4 | O=C(O)c1ccc2c(c1)nc1n2CC[C@H]2[C@@H]1[C@H](c1cccc(Cl)c1F)[C@]1(C(=O)Nc3cc(Cl)ccc31)N2CC1CCC1 [Ib-123] |
| 3 | Cc1cc2c3n(nc2cc1C(=O)O)[C@@H]1[C@H](C3)N(CC2CC2)[C@@]2(C(=O)Nc3cc(Cl)ccc32)[C@H]1c1cccc(Cl)c1F [Ia-33] |
| 3 | O=C(O)c1ccc2c(c1)nc1n2CC[C@H]2[C@@H]1[C@H](c1cccc(Cl)c1F)[C@]1(C(=O)Nc3cc(Cl)ccc31)N2CC1CC1 [Ib-106] |
| 2 | O=C(O)c1ccc2c3n(nc2c1)[C@@H]1[C@H](C3)N(CC2CC2)[C@@]2(C(=O)Nc3cc(Cl)ccc32)[C@H]1c1cccc(Cl)c1F [Ia-25] |
| 2 | CC(C)CN1[C@H]2Cc3c4ccc(C(=O)O)cc4nn3[C@H]2[C@H](c2cccc(Cl)c2F)[C@]12C(=O)Nc1cc(Cl)ccc12 [Ia-27] |
| 2 | CCN1[C@H]2Cc3c4ccc(C(=O)O)cc4nn3[C@H]2[C@H](c2cccc(Cl)c2F)[C@]12C(=O)Nc1cc(Cl)ccc12 [Ia-30] |
| 2 | O=C(O)c1ccc2nn3c(c2c1)C[C@H]1[C@@H]3[C@H](c2cccc(Cl)c2F)[C@]2(C(=O)Nc3cc(Cl)ccc32)N1CC1CC1 [Ia-38] |
